The record followed here is PMC8981170 (RSC Advances, 2022).

The target in experiment [1] is T1, Sirt1 (Homo sapiens, UniProt Q96EB6).
T1 sequence (Q96EB6 1-747): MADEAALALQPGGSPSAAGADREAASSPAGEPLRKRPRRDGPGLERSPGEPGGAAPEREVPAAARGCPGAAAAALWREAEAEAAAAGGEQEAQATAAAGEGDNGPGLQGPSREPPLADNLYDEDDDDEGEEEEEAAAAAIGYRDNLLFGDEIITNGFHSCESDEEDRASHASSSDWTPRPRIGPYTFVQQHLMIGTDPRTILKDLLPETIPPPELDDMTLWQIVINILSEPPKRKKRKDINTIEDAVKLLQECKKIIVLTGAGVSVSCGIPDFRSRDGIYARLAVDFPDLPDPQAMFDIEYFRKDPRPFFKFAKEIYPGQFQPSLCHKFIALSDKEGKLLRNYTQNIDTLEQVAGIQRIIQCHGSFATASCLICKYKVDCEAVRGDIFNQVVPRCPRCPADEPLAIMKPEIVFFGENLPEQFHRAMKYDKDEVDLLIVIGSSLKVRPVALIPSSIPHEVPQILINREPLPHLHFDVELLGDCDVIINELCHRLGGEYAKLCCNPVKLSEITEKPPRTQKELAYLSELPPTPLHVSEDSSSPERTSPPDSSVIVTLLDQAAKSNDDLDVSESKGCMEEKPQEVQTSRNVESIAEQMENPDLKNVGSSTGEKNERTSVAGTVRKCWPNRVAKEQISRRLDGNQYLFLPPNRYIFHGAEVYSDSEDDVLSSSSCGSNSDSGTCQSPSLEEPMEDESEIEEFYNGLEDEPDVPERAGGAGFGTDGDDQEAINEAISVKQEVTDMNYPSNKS
The experiment is described as follows: Enzyme-based Sirt1 inhibition assay at 10 μM. Format: biochemical. Particulars: for inhibition at 10 µM: read-out: % inhibition at 10 μM Sirt1, 10 μM, mean of three independent experiments; for % inhibition at 10 μM Sirt1: mean of three independent experiments.

Experiment [2] addresses T1, Sirt1. The experiment is described as follows: Cell-based Sirt1 inhibition in HepG2 cells. The settings on record: HepG2, read-out: % Inhibition Sirt1, HepG2 cells, 10 μM, 6 h; n = 3.
In another experiment the test system is Sirt2 + Sirt3. The experiment is described as follows: Cell-based Sirt2/Sirt3 joint inhibition in HepG2 cells. Details: species or system human. Particulars: 10 μM, 6 h.
For another experiment, the system named is HepG2 cells. The experiment is described as follows: MTT cell viability assay, HepG2. Type of experiment: cell-based, human. Particulars: 1-400 μM, 24 h. In general terms: Tetrazolium dyes change colour on reduction, which living cells bring about.
A further experiment relates to MCF7 cells. The experiment is described as follows: MTT cell viability assay, MCF7. Format: cell-based, human. Particulars: 1-400 μM, 24 h.
The test system of a further experiment is Ac-p53 in HepG2 cells. The experiment is described as follows: Western blotting for acetylated p53. Particulars: 25 μM, 48 h, western blot. Type of experiment: cell-based, human. (In western blotting, separated proteins are transferred to a membrane and probed.)
In experiment [3] the target is T1, Sirt1. The experiment is described as follows: Concentration-dependent Sirt1 inhibition.
Setting [4] is: joint inhibition of Sirt2 and Sirt3, n = 3, 10 µM.

Values joined by “and” are separate entries in the source; they are usually repeats but may differ in a detail not shown here. Equal entries are not always repeated.

Take `COc1ccc(-c2n[nH]cc2C=C2SC(=S)N([C@@H](C)C(=O)O)C2=O)cc1` [Compound 13b]: the inhibition (usually how much of the control response was suppressed) at 10 µM on Sirt1 [1] was less than 30%.

Regarding `O=C(N[C@@H](Cc1c[nH]c2ccccc12)C(=O)O)c1ccc2c(c1)nc(-c1c(F)cccc1Cl)n2C1CCCCC1` [Compound 7l], the inhibition at 10 µM on Sirt1 [1] is less than 30%.

Take `COc1ccc(-c2nc3cc(C(=O)N[C@@H](Cc4c[nH]c5ccccc45)C(=O)O)ccc3n2C2CCCCC2)cc1` [Compound 7d]: the % inhibition – broadly, the percentage by which the read-out fell short of the control – at 10 μM Sirt1 at Sirt1 [1] is recorded as 89.99%. For the same molecule, the results for the inhibition at 10 µM on Sirt1 [1] and at Sirt1 [2] were greater than 80% and no less than 30%, respectively. Also, the “% Inhibition Sirt2 + Sirt3” value in the experiment with Sirt2 + Sirt3 (setting [4]) was 19% and 20% and 19.89 ± 0.89%. The “Effect on HepG2 cell viability” value in the experiment with HepG2 cells is “continuous decrease in cell viability with increasing inhibitor concentration”. The “Effect on MCF7 cell viability” value with MCF7 cells is “continuous and comparatively higher decrease in cell viability with increasing inhibitor concentration”. Moreover, the “Ac-p53 levels in HepG2 cells” value with Ac-p53 in HepG2 cells was “increased the Ac-p53 levels in HepG2 cells comparable to the positive control”. Moreover, at Sirt1 [3], the IC50 (usually the concentration needed to halve the response being measured) stood at 770 ± 40 nM.

`COc1ccc(-c2nc3cc(C(=O)N[C@H](C(=O)O)C(C)C)ccc3n2C2CCCCC2)cc1` [Compound 7b]: the “% inhibition at 10 μM Sirt1” value on Sirt1 [1] stood at 88.18%. The inhibition at 10 µM at Sirt1 [1] was greater than 80%; at Sirt1 [2] it was less than 1%.

As to `COc1ccc(-c2nc3cc(C(=O)N[C@@H](C)C(=O)O)ccc3n2C2CCCCC2)cc1` [Compound 7a], at Sirt1 [1], the “% inhibition at 10 μM Sirt1” value was 88.03% and the inhibition at 10 µM is greater than 80%. Further, on Sirt1 [2], the inhibition at 10 µM is less than 1%.

Take `O=C(O)[C@H](Cc1ccccc1)N1C(=O)C(=Cc2c[nH]nc2-c2cc(F)cc(F)c2)SC1=S` [Compound 13g]: on Sirt1 [1], the inhibition at 10 µM was less than 30%.

Turning to `CC(C)[C@H](NC(=O)c1ccc2c(c1)nc(-c1ccc(F)cc1)n2C1CCCCC1)C(=O)O` [Compound 7f], the inhibition at 10 µM on Sirt1 [1] was less than 30%.

`O=C(O)[C@H](Cc1ccccc1)N1C(=O)C(=Cc2c[nH]nc2-c2ccc([N+](=O)[O-])cc2)SC1=S` [Compound 13k]: the inhibition at 10 µM on Sirt1 [1] was less than 30%.

On to `CC(C)C[C@H](NC(=O)c1ccc2c(c1)nc(-c1ccc(F)cc1)n2C1CCCCC1)C(=O)O` [Compound 7g], for which the results for the inhibition at 10 µM on Sirt1 [1] and at Sirt1 [2] were 80.8% and less than 1%, respectively.

On to `C[C@H](NC(=O)c1ccc2c(c1)nc(-c1ccc(F)cc1)n2C1CCCCC1)C(=O)O` [Compound 7e], for which the inhibition at 10 µM on Sirt1 [1] is less than 30%.

`COc1ccc(-c2n[nH]cc2C=C2SC(=S)N([C@@H](Cc3c[nH]c4ccccc34)C(=O)O)C2=O)cc1` [Compound 13d]: on Sirt1 [1], the “% inhibition at 10 μM Sirt1” value was 90.64% and the inhibition at 10 µM is greater than 80%. The inhibition at 10 µM on Sirt1 [2] was no less than 30%. In addition, the “% Inhibition Sirt2 + Sirt3” value in the experiment with Sirt2 + Sirt3 (setting [4]) was 6% and 6.04 ± 0.91%. Moreover, the “Effect on MCF7 cell viability” value in the experiment on MCF7 cells is recorded as “no significant changes in cell viability”. For the same molecule, the “Ac-p53 levels in HepG2 cells” value with Ac-p53 in HepG2 cells is given as “no major change”. Also, at Sirt1 [3], the IC50 turned out to be 710 ± 30 nM.

`COc1ccc(-c2nc3cc(C(=O)N[C@@H](CC(C)C)C(=O)O)ccc3n2C2CCCCC2)cc1` [Compound 7c]: on Sirt1 [1], the “% inhibition at 10 μM Sirt1” value is reported as 86.34% and the inhibition at 10 µM is greater than 80%. Besides, the inhibition at 10 µM on Sirt1 [2] turned out to be 3.24 ± 0.27%. In the experiment on Sirt2 + Sirt3 (joint inhibition of Sirt2 and Sirt3, n = 3), the “% Inhibition Sirt2 + Sirt3” value turned out to be 5.21 ± 0.78%.

Regarding `O=C(O)[C@H](Cc1c[nH]c2ccccc12)N1C(=O)C(=Cc2c[nH]nc2-c2cc(F)cc(F)c2)SC1=S` [Compound 13h], at Sirt1 [1], the “% inhibition at 10 μM Sirt1” value came to 89.15% and the inhibition at 10 µM is greater than 80%. Also, the inhibition at 10 µM on Sirt1 [2] is no less than 30%. The “% Inhibition Sirt2 + Sirt3” value with Sirt2 + Sirt3 (setting [4]) was 10% and 9.53 ± 0.65%. In the experiment with HepG2 cells, the “Effect on HepG2 cell viability” value is given as “very less decrease in cell viability”. In addition, the “Effect on MCF7 cell viability” value in the experiment with MCF7 cells is reported as “no significant changes in cell viability”. The “Ac-p53 levels in HepG2 cells” value in the experiment with Ac-p53 in HepG2 cells is listed as “no major change”. In addition, the IC50 against Sirt1 [3] is 660 ± 20 nM.

For `C[C@@H](C(=O)O)N1C(=O)C(=Cc2c[nH]nc2-c2cc(F)cc(F)c2)SC1=S` [Compound 13f], on Sirt1 [1], the inhibition at 10 µM is less than 30%.

With `O=C(O)[C@H](Cc1c[nH]c2ccccc12)N1C(=O)C(=Cc2c[nH]nc2-c2ccc([N+](=O)[O-])cc2)SC1=S` [Compound 13l], at Sirt1 [1], the “% inhibition at 10 μM Sirt1” value turned out to be 89.64% and the inhibition at 10 µM is greater than 80%. In addition, on Sirt1 [2], the inhibition at 10 µM was no less than 30%. Further, in the experiment with Sirt2 + Sirt3 (setting [4]), the “% Inhibition Sirt2 + Sirt3” value is 9% and 9.47 ± 0.92%. In the experiment with HepG2 cells, the “Effect on HepG2 cell viability” value is “very less decrease in cell viability”. Besides, the “Effect on MCF7 cell viability” value in the experiment with MCF7 cells was “no significant changes in cell viability”. In addition, the “Ac-p53 levels in HepG2 cells” value in the experiment with Ac-p53 in HepG2 cells is recorded as “no major change”. The molecule also gave an IC50 at Sirt1 [3] of 730 ± 60 nM.

In the case of `COc1ccc(-c2n[nH]cc2C=C2SC(=S)N([C@@H](Cc3ccccc3)C(=O)O)C2=O)cc1` [Compound 13c], the inhibition at 10 µM at Sirt1 [1] was less than 30%.

As for `C[C@@H](C(=O)O)N1C(=O)C(=Cc2c[nH]nc2-c2ccc([N+](=O)[O-])cc2)SC1=S` [Compound 13j], the inhibition at 10 µM at Sirt1 [1] is less than 30%.

For the molecule `O=C(N[C@@H](Cc1c[nH]c2ccccc12)C(=O)O)c1ccc2c(c1)nc(-c1ccc(F)cc1)n2C1CCCCC1` [Compound 7h], the inhibition at 10 µM was 86.8% at Sirt1 [1] and less than 1% on Sirt1 [2].
